pIC50: −log10 of the molar value.
Columns and labels:
[1] = biological target: T1, beta-catenin-B-cell lymphoma 9 protein complex (Homo sapiens, UniProt P35222); experiment: Inhibition of beta-catenin/BCL9 protein-protein interaction in Wnt-independent human A549 cells assessed as reduction in Axin2 expression level by qRT-PCR assay; assay type: cell-based
T1 sequence (P35222 whole entry): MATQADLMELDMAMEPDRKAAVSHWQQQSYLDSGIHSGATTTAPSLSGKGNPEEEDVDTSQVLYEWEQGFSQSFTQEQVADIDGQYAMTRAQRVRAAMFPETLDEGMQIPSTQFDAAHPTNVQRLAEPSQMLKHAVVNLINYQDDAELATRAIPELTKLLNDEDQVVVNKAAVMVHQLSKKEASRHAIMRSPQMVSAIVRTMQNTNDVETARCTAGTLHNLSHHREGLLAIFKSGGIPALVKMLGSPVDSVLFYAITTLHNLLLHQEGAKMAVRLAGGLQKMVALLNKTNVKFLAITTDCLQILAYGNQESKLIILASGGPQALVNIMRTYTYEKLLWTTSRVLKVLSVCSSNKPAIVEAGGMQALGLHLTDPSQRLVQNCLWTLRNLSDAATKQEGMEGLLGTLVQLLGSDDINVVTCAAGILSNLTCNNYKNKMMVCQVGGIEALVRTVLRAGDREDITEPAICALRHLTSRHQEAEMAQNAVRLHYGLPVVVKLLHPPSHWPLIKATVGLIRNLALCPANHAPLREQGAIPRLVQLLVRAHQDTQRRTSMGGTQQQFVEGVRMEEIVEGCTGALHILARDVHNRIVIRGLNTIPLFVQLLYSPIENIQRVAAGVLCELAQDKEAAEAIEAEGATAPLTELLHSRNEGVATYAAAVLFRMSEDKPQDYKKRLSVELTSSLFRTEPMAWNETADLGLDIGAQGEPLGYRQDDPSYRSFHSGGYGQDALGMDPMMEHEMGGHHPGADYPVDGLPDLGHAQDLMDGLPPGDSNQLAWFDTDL
T1 sequence (O00512 whole entry): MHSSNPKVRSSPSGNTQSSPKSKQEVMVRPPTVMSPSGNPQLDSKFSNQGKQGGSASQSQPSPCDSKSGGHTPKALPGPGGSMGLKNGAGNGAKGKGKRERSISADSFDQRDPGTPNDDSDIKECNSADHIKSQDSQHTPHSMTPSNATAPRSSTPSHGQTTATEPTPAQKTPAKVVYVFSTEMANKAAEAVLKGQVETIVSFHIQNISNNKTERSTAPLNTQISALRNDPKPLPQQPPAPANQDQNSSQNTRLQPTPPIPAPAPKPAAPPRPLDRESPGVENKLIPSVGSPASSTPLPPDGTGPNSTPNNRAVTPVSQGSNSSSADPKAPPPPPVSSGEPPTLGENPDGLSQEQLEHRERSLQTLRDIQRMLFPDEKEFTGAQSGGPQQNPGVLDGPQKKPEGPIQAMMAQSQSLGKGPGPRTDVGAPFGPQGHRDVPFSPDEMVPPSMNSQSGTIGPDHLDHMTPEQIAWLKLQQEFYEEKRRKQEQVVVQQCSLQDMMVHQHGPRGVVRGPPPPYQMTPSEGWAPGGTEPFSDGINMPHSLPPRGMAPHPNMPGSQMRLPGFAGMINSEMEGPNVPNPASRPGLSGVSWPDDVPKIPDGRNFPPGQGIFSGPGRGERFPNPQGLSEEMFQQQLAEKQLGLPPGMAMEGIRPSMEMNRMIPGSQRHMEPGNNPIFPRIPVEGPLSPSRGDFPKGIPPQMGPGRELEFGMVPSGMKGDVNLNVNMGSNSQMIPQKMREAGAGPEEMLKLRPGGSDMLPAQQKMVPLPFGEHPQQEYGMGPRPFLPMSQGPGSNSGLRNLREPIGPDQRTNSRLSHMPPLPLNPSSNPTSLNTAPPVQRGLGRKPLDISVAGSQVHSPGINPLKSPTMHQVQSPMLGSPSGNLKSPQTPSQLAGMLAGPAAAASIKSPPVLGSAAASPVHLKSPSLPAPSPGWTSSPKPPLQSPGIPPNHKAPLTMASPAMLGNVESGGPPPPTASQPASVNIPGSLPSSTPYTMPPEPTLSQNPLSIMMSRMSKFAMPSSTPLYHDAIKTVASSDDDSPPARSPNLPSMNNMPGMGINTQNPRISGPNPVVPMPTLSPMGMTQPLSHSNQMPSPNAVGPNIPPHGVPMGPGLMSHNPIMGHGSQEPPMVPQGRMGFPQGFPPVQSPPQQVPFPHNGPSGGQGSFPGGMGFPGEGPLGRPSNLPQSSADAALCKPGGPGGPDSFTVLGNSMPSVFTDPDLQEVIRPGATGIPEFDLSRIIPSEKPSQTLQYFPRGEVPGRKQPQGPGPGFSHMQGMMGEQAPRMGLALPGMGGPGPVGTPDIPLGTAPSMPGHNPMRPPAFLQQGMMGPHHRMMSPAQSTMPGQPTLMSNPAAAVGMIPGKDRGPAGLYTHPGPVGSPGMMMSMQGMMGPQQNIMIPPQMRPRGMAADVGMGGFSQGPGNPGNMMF

[2] = test system: HCT-116; experiment: Induction of apoptosis in Wnt-dependent human HCT-116 cells assessed as early apoptotic cells at 10 uM incubated for 24 hrs by Annexin V-Alexa Fluor 647/PI staining based flow cytomtery (Rvb=14.3%); assay type: functional
[3] = test system: HCT-116; experiment: Induction of apoptosis in Wnt-dependent human HCT-116 cells assessed as early apoptotic cells at 20 uM incubated for 24 hrs by Annexin V-Alexa Fluor 647/PI staining based flow cytomtery (Rvb=14.3%); assay type: functional
[4] = test system: CT26; experiment: Induction of apoptosis in Wnt-dependent mouse CT26 cells assessed as late apoptotic cells at 20 uM incubated for 24 hrs by Annexin V-Alexa Fluor 647/PI staining based flow cytomtery (Rvb=9.96%); assay type: functional
[5] = test system: CT26; experiment: Induction of apoptosis in Wnt-dependent mouse CT26 cells assessed as early apoptotic cells at 20 uM incubated for 24 hrs by Annexin V-Alexa Fluor 647/PI staining based flow cytomtery (Rvb=18.3%); assay type: functional
[6] = test system: CT26; experiment: Antitumor activity against mouse CT26 cells xenografted in BALB/c mouse assessed as tumor growth inhibition at 30 mg/kg, ip QD and measured upto 9 days; assay type: functional; conditions: CT26, 216 h, time <= 9 day, read-out: TGI
[7] = Toxicity in BALB/c mouse xenografted with mouse CT26 cells assessed as adverse effect at 30 mg/kg, ip QD and measured upto 9 days in presence of anti-PD-1 antibody cotreatment at 10 mg/kg,ip BIW; assay type: organism-based; conditions: in vivo, 216 h, time < 9 day
[8] = Toxicity in BALB/c mouse xenografted with mouse CT26 cells assessed as pathological changes in spleen at 30 mg/kg, ip QD in presence of anti-PD-1 antibody cotreatment at 10 mg/kg,ip BIW by hematoxylin and eosin staining based microscopic analysis; assay type: organism-based; conditions: in vivo
[9] = Toxicity in BALB/c mouse xenografted with mouse CT26 cells assessed as pathological changes in kidney at 30 mg/kg, ip QD in presence of anti-PD-1 antibody cotreatment at 10 mg/kg,ip BIW by hematoxylin and eosin staining based microscopic analysis; assay type: organism-based; conditions: in vivo

SMILES | pIC50 [1] | Activity [2] [%] | Activity [3] [%] | Activity [4] [%] | Activity [5] [%] | inhibition in vivo at 30 mg/kg [6] [%] | Activity [7] | Activity [8] | Activity [9]
O=C1[C@H](Cc2ccc(O)cc2)N2C(=O)CCN(C(=O)NCc3ccccc3)[C@H]2CN1Cc1cccc2ccccc12 | 4.61 | – | – | – | – | – | – | – | –
CC(C)c1ccc(-c2cccc(S(=O)(=O)N3CCCC(c4cccc(OC(C)(C)C(=O)NS(=O)(=O)c5ccc(C(F)(F)F)cc5)c4)C3)c2)cc1 (centres undefined) | – | 16.7 | 26.4 | 52.6 | 28 | 67.6 | Non-Toxic | Non-Toxic | Non-Toxic

From ChEMBL document CHEMBL5316313, “Discovery of Novel 3-Phenylpiperidine Derivatives Targeting the β-Catenin/B-Cell Lymphoma 9 Interaction as a Single Agent and in Combination with the Anti-PD-1 Antibody for the Treatment of Colorectal Cancer” (J Med Chem, 2023)
